In assay [1] the target is T1, Myosin-IIIb (Homo sapiens) (UniProt Q8WXR4).
T1 sequence (whole entry): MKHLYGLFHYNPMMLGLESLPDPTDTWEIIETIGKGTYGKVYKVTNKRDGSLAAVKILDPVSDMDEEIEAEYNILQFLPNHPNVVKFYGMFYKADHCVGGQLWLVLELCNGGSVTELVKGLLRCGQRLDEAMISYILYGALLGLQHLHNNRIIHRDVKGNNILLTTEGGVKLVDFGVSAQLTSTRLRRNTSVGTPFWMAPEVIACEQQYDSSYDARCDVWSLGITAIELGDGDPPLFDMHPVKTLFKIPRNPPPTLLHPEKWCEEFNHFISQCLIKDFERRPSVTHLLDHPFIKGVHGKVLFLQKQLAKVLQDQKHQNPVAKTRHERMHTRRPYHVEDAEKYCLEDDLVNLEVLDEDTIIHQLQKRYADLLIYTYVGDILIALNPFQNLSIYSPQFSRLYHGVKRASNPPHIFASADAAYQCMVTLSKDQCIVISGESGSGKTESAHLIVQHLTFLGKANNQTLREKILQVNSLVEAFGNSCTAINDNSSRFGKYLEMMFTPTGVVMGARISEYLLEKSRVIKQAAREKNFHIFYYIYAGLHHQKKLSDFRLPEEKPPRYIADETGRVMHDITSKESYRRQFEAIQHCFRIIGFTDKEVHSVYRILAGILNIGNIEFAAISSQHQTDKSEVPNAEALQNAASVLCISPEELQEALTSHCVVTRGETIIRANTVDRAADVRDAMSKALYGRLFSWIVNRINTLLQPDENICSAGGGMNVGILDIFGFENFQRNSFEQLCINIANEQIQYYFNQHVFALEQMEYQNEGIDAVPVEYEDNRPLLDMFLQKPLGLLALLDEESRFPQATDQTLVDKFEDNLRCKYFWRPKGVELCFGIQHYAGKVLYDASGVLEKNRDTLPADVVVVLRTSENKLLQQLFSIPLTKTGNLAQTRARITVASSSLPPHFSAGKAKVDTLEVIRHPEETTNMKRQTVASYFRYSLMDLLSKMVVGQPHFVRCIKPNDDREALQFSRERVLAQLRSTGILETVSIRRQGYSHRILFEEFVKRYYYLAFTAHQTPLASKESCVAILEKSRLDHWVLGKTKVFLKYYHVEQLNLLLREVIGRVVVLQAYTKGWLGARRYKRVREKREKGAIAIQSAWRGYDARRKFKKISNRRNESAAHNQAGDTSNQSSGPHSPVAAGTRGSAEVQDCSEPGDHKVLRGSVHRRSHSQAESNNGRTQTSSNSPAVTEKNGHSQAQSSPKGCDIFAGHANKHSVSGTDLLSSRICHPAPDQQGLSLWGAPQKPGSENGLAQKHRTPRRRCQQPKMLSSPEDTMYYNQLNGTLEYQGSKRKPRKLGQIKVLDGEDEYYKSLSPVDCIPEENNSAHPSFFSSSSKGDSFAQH
The assay is described as follows: Selectivity interaction (KinomeScan (DiscoverX)) EUB0000229b MYO3B. The following applies: at 10 µM.

In assay [2] the target is Serine/threonine-protein kinase 16 (Homo sapiens, UniProt O75716). Put plainly: Selectivity interaction (ActivX KiNativ screen (kinase selectivity in THP-1 cell lysates)) EUB0000639a STK16. The assay is classed as subcellular. The note with it: lysate, at 1 µM.
For assay [3], the target named is Death-associated protein kinase 1 (Homo sapiens, UniProt P53355). The assay is described as follows: Selectivity interaction (ProQinase) EUB0000171b DAPK1.
Assay [4] addresses T2, Serine/threonine-protein kinase Nek5 (Homo sapiens) (UniProt Q6P3R8).
T2 sequence (whole entry): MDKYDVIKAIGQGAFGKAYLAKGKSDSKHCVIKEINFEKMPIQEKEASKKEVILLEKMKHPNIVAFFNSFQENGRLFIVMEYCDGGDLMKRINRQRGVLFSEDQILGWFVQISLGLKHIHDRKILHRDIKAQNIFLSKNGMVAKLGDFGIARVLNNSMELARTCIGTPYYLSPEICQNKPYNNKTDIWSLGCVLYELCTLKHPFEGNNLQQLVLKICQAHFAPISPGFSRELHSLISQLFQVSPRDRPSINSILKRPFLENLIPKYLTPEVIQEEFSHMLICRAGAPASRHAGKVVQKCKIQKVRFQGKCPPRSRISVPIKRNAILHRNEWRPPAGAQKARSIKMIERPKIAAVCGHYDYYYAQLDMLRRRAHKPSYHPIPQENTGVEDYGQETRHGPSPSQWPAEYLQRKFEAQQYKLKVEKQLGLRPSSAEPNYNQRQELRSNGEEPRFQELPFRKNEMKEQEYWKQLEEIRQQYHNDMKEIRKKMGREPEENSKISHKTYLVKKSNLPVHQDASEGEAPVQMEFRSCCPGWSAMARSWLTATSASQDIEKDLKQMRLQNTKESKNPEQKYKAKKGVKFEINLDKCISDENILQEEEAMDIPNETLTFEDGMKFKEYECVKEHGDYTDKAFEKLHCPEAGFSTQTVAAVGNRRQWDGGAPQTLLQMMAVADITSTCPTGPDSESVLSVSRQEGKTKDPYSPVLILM
The assay is described as follows: Selectivity interaction (KinomeScan (DiscoverX)) EUB0000092b NEK5. The note with it: at 10 µM.

Assay [5] concerns the target T3, Homeodomain-interacting protein kinase 4 (Homo sapiens) (UniProt Q8NE63).
T3 sequence (whole entry): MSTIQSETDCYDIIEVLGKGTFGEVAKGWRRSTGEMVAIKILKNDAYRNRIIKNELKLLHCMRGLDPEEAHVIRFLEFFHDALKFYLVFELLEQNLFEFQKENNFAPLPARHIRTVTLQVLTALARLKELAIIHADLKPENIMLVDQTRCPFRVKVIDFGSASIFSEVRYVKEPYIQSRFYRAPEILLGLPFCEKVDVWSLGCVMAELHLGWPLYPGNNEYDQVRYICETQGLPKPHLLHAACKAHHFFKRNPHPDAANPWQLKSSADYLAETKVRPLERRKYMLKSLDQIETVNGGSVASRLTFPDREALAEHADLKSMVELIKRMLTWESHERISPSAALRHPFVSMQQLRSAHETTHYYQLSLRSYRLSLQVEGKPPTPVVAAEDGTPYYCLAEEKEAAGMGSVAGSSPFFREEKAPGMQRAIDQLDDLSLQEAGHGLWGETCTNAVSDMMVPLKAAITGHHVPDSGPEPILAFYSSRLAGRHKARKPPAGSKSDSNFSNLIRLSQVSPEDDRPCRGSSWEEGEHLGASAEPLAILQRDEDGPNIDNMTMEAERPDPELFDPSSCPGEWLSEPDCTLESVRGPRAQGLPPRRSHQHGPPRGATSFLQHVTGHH
Put plainly: Selectivity interaction (KinomeScan (DiscoverX)) EUB0000618a HIPK4. The note with it: at 10 µM.

This note sets out measurements from ChEMBL document CHEMBL5465560, “Selectivity Literature for EUbOPEN Chemogenomic Library” (2024).

Chain of Death-associated protein kinase 1 (P53355 whole entry, looked up): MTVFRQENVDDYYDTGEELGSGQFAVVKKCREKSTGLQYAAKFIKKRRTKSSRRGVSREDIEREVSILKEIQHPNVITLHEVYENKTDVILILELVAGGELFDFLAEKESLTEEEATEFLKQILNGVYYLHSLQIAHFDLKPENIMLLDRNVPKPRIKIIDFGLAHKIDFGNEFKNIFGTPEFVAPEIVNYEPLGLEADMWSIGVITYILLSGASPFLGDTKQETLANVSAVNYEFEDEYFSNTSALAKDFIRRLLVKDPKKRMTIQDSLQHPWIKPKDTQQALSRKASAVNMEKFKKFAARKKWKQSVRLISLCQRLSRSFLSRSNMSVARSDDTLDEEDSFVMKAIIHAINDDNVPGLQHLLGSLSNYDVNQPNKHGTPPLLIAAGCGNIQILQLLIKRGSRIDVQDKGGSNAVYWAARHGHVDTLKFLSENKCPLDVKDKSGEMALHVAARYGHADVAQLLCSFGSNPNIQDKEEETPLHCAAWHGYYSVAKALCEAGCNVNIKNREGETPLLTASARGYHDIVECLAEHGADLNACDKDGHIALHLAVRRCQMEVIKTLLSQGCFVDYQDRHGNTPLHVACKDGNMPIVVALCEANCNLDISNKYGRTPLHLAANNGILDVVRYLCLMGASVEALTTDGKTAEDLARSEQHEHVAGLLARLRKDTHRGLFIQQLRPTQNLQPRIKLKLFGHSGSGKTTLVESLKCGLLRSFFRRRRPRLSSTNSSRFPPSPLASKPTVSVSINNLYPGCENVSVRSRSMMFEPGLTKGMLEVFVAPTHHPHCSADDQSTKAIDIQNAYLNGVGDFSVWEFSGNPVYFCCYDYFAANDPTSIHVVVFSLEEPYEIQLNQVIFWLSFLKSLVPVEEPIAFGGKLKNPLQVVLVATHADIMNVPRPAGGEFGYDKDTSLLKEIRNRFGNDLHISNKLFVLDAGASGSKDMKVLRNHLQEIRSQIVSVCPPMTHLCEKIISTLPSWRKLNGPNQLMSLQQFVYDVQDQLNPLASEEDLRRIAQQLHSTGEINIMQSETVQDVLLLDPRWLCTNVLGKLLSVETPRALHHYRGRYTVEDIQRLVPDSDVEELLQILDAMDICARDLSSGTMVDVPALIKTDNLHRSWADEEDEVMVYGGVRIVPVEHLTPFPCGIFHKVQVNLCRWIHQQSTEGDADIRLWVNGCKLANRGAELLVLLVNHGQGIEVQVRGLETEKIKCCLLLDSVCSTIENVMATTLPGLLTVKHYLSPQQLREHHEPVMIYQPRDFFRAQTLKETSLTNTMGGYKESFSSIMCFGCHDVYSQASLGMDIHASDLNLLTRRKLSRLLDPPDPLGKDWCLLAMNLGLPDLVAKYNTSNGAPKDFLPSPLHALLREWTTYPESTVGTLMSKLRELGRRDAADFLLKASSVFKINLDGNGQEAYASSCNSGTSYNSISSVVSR
Chain of Serine/threonine-protein kinase 16 (O75716 whole entry): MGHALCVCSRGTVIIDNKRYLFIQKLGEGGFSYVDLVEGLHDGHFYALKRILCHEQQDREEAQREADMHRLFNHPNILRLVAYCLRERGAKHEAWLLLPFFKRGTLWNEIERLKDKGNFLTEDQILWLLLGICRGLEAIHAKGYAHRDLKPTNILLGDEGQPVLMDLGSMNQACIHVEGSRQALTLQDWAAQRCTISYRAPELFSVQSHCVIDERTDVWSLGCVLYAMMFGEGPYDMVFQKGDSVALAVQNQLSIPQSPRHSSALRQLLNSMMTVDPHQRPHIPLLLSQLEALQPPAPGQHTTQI

For `COc1cc(N(C)c2ccnc3ccc(C(F)(F)F)cc23)cc(OC)c1OC`, the % binding in assay [1] worked out at 100%. In turn, `CC[C@@H]1[C@H](F)C(=O)N[C@@H]1COc1nccc2cc(C(N)=O)c(OC)cc12` [ZIMLOVISERTIB] returned a % of inhibition in assay [2] of 58.6%. With `C=CC(=O)Nc1cccc(C(=O)Nc2ccc(Nc3cc(-c4[nH]c(SC)nc4C)ccn3)cc2)c1`, the % of control was found to be 100% in assay [3] (at 1 µM) and 94% in assay [3] (at 5 µM). In turn, `CCC(=O)N1CCN(c2ccc(-n3c(=O)ccc4cnc5ccc(-c6cnc7ccccc7c6)cc5c43)cc2C(F)(F)F)CC1` yielded a % of control in assay [4] of 5.8%. With `O[C@H]1CC[C@H](Nc2ncc3nc(Nc4c(F)cc(F)cc4F)n([C@H]4CCOC4)c3n2)CC1`, the % of control in assay [5] was 98%.
